The structures appear in SMILES notation.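 Dose response: 5 concentrations. Exposure: 48 h. Format: 96-well plates. Endpoint: linear interpolation; highest concentration if not reached. Here, GI50 denotes the concentration required for 50% inhibition of growth. Definition used: TGI = concentration required for complete inhibition of growth.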 Where only a bound is given, the exact number is not on record here.

Among the test systems are CAKI-1 renal; OVCAR-4 ovarian; UACC-62 melanoma; U251 CNS; MOLT-4 leukemia; SK-MEL-28 melanoma; NCI-H460 lung; IGROV1 ovarian; SNB-75 CNS; RXF 393 renal.
What all share (assay): NCI tumour cell line growth inhibition, 48 h

Regarding `COC(=O)CC1(O)C=CC(=O)C=C1`, the TGI in the experiment on CAKI-1 renal was determined as 11.6 µM; in the experiment on OVCAR-4 ovarian it was 11.6 µM; in the experiment on UACC-62 melanoma it was 5 µM; in the experiment on U251 CNS, 18.5 µM; in the experiment on MOLT-4 leukemia it was 7.25 µM; in the experiment with SK-MEL-28 melanoma it was 7.47 µM. Also, the TGI was 5.02 µM in the experiment on NCI-H460 lung, 5.04 µM in the experiment on IGROV1 ovarian, 14.2 µM in the experiment on SNB-75 CNS and 17.9 µM in the experiment with RXF 393 renal.

Consider `OCCCCC#Cc1ccccc1C#Cc1cccnc1`, for which the GI50 is 29.1 µM in the experiment on CAKI-1 renal; 26.5 µM with OVCAR-4 ovarian; 35.2 µM in the experiment on UACC-62 melanoma; 20.3 µM with U251 CNS; 27.9 µM in the experiment with MOLT-4 leukemia; 23.7 µM with SK-MEL-28 melanoma. The GI50 with NCI-H460 lung is 31.6 µM; with IGROV1 ovarian it was 20.3 µM; in the experiment on SNB-75 CNS, 40.3 µM; with RXF 393 renal, 5.95 µM. Further, the TGI in the experiment on CAKI-1 renal is 83.5 µM; in the experiment on OVCAR-4 ovarian, > 100 µM; in the experiment on UACC-62 melanoma, > 100 µM; in the experiment with U251 CNS, 78.6 µM; in the experiment with MOLT-4 leukemia it was > 100 µM; in the experiment with SK-MEL-28 melanoma it was > 100 µM. Besides, the TGI in the experiment with NCI-H460 lung is > 100 µM; in the experiment with IGROV1 ovarian, 52 µM; in the experiment on SNB-75 CNS it was > 100 µM; in the experiment on RXF 393 renal, 28.6 µM.

On to `CN1CCN(CCCOc2ccc3nc(Nc4ccc(F)c(F)c4)ccc3c2)CC1`, for which the GI50 is 1.67 µM in the experiment on CAKI-1 renal; 2.84 µM in the experiment with OVCAR-4 ovarian; 1.69 µM with U251 CNS; 2.37 µM with MOLT-4 leukemia; 1.56 µM in the experiment on SK-MEL-28 melanoma; 1.91 µM with NCI-H460 lung. Besides, the GI50 in the experiment with IGROV1 ovarian was 3.11 µM; in the experiment on SNB-75 CNS it was 1.35 µM; in the experiment with RXF 393 renal it was 1.52 µM. Moreover, the TGI worked out at 3.95 µM in the experiment with CAKI-1 renal; 14.9 µM in the experiment on OVCAR-4 ovarian; 3.64 µM with U251 CNS; 7.76 µM in the experiment with MOLT-4 leukemia; 3.2 µM with SK-MEL-28 melanoma; 4.12 µM in the experiment with NCI-H460 lung. Besides, the TGI turned out to be 9.01 µM with IGROV1 ovarian, 4.05 µM in the experiment on SNB-75 CNS and 4.36 µM in the experiment with RXF 393 renal.

With `COc1ccc2c(c1O)[C@@]13CCCC=C1[C@@H](C2)[N+](C)(C)CC3`, the TGI in the experiment with CAKI-1 renal, in the experiment with OVCAR-4 ovarian, in the experiment with UACC-62 melanoma, with U251 CNS, in the experiment on SK-MEL-28 melanoma and in the experiment with NCI-H460 lung was > 100 µM each time. Further, the TGI in the experiment on IGROV1 ovarian, in the experiment with SNB-75 CNS and in the experiment with RXF 393 renal was > 100 µM throughout.

On to `CCOC(=O)c1c(-c2ccccc2)[n+](=O)c2cc(F)c(F)cc2n1[O-]`, for which the GI50 is 1.61 µM in the experiment with CAKI-1 renal; 0.624 µM in the experiment with OVCAR-4 ovarian; 1.25 µM in the experiment with U251 CNS; 0.415 µM in the experiment with MOLT-4 leukemia; 1.73 µM in the experiment with SK-MEL-28 melanoma; 0.701 µM in the experiment on IGROV1 ovarian. Besides, the GI50 was 1.75 µM with SNB-75 CNS and 1.38 µM in the experiment with RXF 393 renal. Moreover, the TGI in the experiment with CAKI-1 renal was 3.12 µM; in the experiment with OVCAR-4 ovarian it was 2.16 µM; with U251 CNS it was 2.71 µM; with MOLT-4 leukemia, > 100 µM; in the experiment on SK-MEL-28 melanoma it was 3.34 µM; in the experiment on IGROV1 ovarian, > 100 µM. Besides, the results for the TGI in the experiment with SNB-75 CNS and in the experiment with RXF 393 renal were 3.64 µM and 4.1 µM, respectively.

Take `CCC[CH2][Sn]([CH2]CCC)([CH2]CCC)/[C](=C/[Si](C)(C)c1ccccc1)c1ccc2c(c1)OCO2`: the GI50 in the experiment with CAKI-1 renal is 16 µM; in the experiment on OVCAR-4 ovarian, 14.9 µM; in the experiment on U251 CNS, 18.8 µM; with MOLT-4 leukemia, 17.4 µM; in the experiment on SK-MEL-28 melanoma, 16.2 µM; in the experiment with NCI-H460 lung it was 21.3 µM. In addition, the values for the GI50 in the experiment on IGROV1 ovarian, in the experiment with SNB-75 CNS and with RXF 393 renal were 16.9 µM, 58.5 µM and 22.1 µM, respectively. In addition, the TGI came to 48.2 µM in the experiment on CAKI-1 renal; 36.6 µM in the experiment with OVCAR-4 ovarian; 40 µM in the experiment on U251 CNS; 83.3 µM with MOLT-4 leukemia; 33.4 µM with SK-MEL-28 melanoma; 52.3 µM with NCI-H460 lung. For the same compound, the TGI in the experiment on IGROV1 ovarian is 37.9 µM; in the experiment with SNB-75 CNS it was > 100 µM; with RXF 393 renal it was 41.2 µM.

As for `Brc1cc(C2OCCCO2)ccc1OCc1ccccc1`, the TGI in the experiment with CAKI-1 renal, in the experiment on OVCAR-4 ovarian, with UACC-62 melanoma, in the experiment on MOLT-4 leukemia, in the experiment with SK-MEL-28 melanoma and in the experiment on NCI-H460 lung was > 100 µM each time. Moreover, the TGI in the experiment with IGROV1 ovarian, in the experiment with SNB-75 CNS and with RXF 393 renal was > 100 µM throughout.

In the case of `CCN(CC)CCCNCc1cc(-c2ccccc2)nc2cc(Cl)ccc12`, the GI50 in the experiment on CAKI-1 renal was 2.35 µM; with OVCAR-4 ovarian it was 7.1 µM; in the experiment with UACC-62 melanoma it was 1.93 µM; in the experiment with U251 CNS, 2.39 µM; with MOLT-4 leukemia it was 2.12 µM; with SK-MEL-28 melanoma, 1.72 µM. In addition, the values for the GI50 with NCI-H460 lung, in the experiment on SNB-75 CNS and in the experiment on RXF 393 renal were 3.41 µM, 1.57 µM and 2.91 µM, respectively. Also, the TGI in the experiment with CAKI-1 renal was determined as 11.2 µM; with OVCAR-4 ovarian, 20.5 µM; in the experiment on UACC-62 melanoma, 3.59 µM; with U251 CNS it was 6.67 µM; in the experiment with MOLT-4 leukemia, 5.46 µM; in the experiment on SK-MEL-28 melanoma, 3.11 µM. Also, the TGI came to 11.2 µM in the experiment on NCI-H460 lung, 4.34 µM in the experiment with SNB-75 CNS and 7.2 µM with RXF 393 renal.

For the compound `COc1cc(S(=O)(=O)Nc2nc(-c3ccc(N4C(=O)C(C)SC4c4ccccc4O)cc3)cs2)ccc1Cl` (stereo unspecified), the GI50 in the experiment on CAKI-1 renal is 67.7 µM; in the experiment on OVCAR-4 ovarian it was 26.4 µM; in the experiment on UACC-62 melanoma, 39.9 µM; with U251 CNS it was 32.8 µM; in the experiment on MOLT-4 leukemia, 34.4 µM; in the experiment on SK-MEL-28 melanoma it was 39.5 µM. The GI50 in the experiment on NCI-H460 lung is 42.5 µM; in the experiment with SNB-75 CNS, 42.4 µM; with RXF 393 renal, > 100 µM. The TGI with CAKI-1 renal, in the experiment with OVCAR-4 ovarian, with UACC-62 melanoma, in the experiment on U251 CNS, in the experiment on MOLT-4 leukemia and with SK-MEL-28 melanoma was > 100 µM in each case. Moreover, the TGI with NCI-H460 lung, in the experiment with SNB-75 CNS and in the experiment with RXF 393 renal was > 100 µM throughout.

These data come from PubChem BioAssay (NCI).
